Experimental data as given in ChEMBL document CHEMBL4325825, “Medicinal chemistry of acridine and its analogues” (Medchemcomm, 2018).
pIC50: −log10 of the molar value. Where a SMILES comes first, the peptide text is derived from it. The star is where a group is joined. X1 = CCN(CC)CCCCC(C)Nc1c2ccccc2nc2c(C(=O)NCCCO/N=C/C(=O)*)cccc12

Legend:
Acetylcholinesterase [1] = biological target: Acetylcholinesterase (Homo sapiens, UniProt P22303); experiment: Inhibition of AChE (unknown origin)
Cholinesterase = Cholinesterase (Homo sapiens, UniProt P06276); experiment: Inhibition of BuChE (unknown origin)
Cholinesterase, sequence (P06276 whole entry): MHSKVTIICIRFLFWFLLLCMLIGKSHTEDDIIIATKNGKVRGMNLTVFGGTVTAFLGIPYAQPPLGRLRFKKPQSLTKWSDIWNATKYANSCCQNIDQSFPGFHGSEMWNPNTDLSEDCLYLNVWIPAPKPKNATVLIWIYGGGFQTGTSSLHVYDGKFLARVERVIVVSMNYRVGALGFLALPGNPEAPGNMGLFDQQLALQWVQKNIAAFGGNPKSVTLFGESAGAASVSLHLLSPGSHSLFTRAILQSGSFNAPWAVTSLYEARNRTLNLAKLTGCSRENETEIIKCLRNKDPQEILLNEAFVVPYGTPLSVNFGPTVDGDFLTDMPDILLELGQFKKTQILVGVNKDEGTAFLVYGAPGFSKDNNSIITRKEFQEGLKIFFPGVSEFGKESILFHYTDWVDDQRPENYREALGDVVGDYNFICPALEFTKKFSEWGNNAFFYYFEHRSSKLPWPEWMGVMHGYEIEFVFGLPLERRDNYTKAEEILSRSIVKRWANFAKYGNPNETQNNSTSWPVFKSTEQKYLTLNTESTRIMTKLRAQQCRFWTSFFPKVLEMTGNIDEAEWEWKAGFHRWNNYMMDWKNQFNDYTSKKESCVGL

DNA = experiment: Binding affinity to DNA (unknown origin); assay type: nucleic-acid assay
Acetylcholinesterase [2] = biological target: T1, Acetylcholinesterase (Mus musculus, UniProt P21836); experiment: Inhibition of AChE in mouse brain; assay type: tissue-based
T1 sequence (P21836 whole entry): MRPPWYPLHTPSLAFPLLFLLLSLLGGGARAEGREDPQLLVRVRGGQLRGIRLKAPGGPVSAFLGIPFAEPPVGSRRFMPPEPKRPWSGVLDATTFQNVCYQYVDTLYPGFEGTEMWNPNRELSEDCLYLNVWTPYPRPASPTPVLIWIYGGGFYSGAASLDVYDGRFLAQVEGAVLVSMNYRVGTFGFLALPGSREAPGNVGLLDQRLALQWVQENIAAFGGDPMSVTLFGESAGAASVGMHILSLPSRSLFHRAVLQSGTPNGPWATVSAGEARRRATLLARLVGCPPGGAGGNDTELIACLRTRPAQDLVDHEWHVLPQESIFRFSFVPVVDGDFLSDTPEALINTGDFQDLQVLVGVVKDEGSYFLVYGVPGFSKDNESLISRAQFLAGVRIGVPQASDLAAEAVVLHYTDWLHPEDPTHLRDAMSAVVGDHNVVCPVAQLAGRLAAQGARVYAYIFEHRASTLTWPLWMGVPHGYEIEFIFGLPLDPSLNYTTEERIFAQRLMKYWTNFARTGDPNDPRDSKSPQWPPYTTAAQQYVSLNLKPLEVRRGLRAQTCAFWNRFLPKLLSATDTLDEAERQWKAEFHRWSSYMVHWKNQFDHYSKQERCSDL

Calf thymus DNA = experiment: Binding affinity to calf thymus DNA; assay type: nucleic-acid assay; conditions: Bos taurus
[3] = biological target: Amyloid-beta precursor protein (Homo sapiens, UniProt P05067); experiment: Inhibition of amyloid beta (1 to 40) (unknown origin) self aggregation
Amyloid-beta precursor protein, sequence (P05067 whole entry): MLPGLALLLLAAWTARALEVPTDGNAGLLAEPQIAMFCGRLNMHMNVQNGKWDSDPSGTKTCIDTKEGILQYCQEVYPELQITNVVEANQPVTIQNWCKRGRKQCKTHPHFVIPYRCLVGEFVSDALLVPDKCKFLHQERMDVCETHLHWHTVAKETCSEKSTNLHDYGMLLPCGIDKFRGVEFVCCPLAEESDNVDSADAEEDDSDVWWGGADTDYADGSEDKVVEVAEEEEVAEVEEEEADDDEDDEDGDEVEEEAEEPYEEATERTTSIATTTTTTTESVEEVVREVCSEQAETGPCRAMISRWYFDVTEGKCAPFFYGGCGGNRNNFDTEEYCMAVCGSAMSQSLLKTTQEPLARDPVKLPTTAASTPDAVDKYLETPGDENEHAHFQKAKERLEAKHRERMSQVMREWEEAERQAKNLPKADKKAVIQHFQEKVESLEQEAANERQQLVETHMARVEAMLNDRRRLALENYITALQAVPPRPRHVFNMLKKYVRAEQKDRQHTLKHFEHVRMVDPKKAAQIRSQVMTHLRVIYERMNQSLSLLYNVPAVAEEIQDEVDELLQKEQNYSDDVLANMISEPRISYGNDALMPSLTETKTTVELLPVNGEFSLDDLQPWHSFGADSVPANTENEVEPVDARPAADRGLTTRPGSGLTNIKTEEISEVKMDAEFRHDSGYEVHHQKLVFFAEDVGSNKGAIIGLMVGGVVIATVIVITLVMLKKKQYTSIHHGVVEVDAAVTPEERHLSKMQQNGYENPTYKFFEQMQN

Acetylcholinesterase (Homo sapiens, UniProt P22303), sequence (P22303 whole entry): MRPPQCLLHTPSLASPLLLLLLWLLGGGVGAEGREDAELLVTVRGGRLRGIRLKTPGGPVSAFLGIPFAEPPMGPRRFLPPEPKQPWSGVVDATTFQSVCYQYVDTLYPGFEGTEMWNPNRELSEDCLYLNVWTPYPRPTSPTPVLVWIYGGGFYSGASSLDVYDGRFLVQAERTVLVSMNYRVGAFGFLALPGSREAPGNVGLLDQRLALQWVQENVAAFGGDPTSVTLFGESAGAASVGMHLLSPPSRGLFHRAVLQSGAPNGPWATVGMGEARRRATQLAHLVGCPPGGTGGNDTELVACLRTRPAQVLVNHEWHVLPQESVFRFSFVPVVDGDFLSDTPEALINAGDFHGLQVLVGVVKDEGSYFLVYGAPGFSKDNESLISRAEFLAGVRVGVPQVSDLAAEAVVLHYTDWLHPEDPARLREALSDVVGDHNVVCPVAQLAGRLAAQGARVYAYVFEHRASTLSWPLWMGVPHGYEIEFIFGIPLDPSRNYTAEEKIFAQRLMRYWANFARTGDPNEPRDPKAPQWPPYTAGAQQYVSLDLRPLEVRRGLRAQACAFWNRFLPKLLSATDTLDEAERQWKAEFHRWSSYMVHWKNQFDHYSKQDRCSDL

O=C(/C=C/c1ccc([N+](=O)[O-])cc1)NCCCCCCNc1c2c(nc3ccccc13)CCCC2 was tested, and the pIC50 (Acetylcholinesterase [1]) was 8.57 and the pIC50 (Cholinesterase) was 8.19.

N#Cc1c(/N=C/c2c3ccccc3nc3ccccc23)sc2c1CCC2 gave a K (DNA) of 1 ×10⁴ /M.

For NC(=O)c1c(/N=C/c2c3ccccc3nc3ccccc23)sc2c1CCC2, the K (DNA) was 1 ×10⁴ /M.

For Fc1ccc(N2CCN(c3c4ccccc4nc4c(Cl)cccc34)CC2)cc1, the pIC50 (Acetylcholinesterase [2]) was 6.48.

CCOC(=O)c1c(/N=C/c2c3ccccc3nc3ccccc23)sc2c1CCC2 gave a K (DNA) of 1 ×10⁴ /M.

Cc1cc(C)c(S(=O)(=O)Nc2ccc(C3C4=C(CC(C)(C)CC4=O)N(c4ccc(Br)cc4)C4=C3C(=O)CC(C)(C)C4)cc2)c(C)c1 was tested, and the pIC50 (Acetylcholinesterase [1]) was 6.85.

In the case of CCOc1ccc2nc3c(I)c(N)ccc3c(NCCCNCCCNCCn3cnc4c(N)ncnc43)c2c1, the K (Calf thymus DNA) was 10000 to 1e+06 M⁻¹.

Compound COc1ccc2nc3cc(Cl)ccc3c(NCCCNCCCNCCn3cnc4c(N)ncnc43)c2c1 has a K (Calf thymus DNA) of 10000 to 1e+06 M⁻¹.

In the case of COc1cc2nc3cc([N+](=O)[O-])ccc3c(NCCCNCCCNCCn3cnc4c(N)ncnc43)c2cc1OC, the K (Calf thymus DNA) was 10000 to 1e+06 M⁻¹.

For CCOc1ccc2nc3cc(N)ccc3c(NCCCNCCCNCCn3cnc4c(N)ncnc43)c2c1, the K (Calf thymus DNA) was 10000 to 1e+06 M⁻¹.

CCN(CC)CCCCC(C)Nc1c2ccccc2nc2c(C(=O)NCCCO/N=C/C(=O)NCCCC[C@@H]3NC(=O)CNC(=O)[C@@H]4CCCN4C(=O)[C@H](CCCCN)NC(=O)[C@@H]4CCCN4C(=O)[C@H](CCCCN)NC(=O)CNC(=O)[C@@H]4CCCN4C(=O)[C@H](CCCCN)NC(=O)[C@@H]4CCCN4C3=O)cccc12 (stereo partly specified) (cyclo(GKPKPGK(X1)PKP)) gave a pIC50 [3] of 5.70.

Work on COc1ccc2c(NCCCNCCCNCCn3cnc4c(N)nc(N)nc43)c3cc(Cl)ccc3nc2c1 yielded a K (Calf thymus DNA) of 10000 to 1e+06 M⁻¹.

In the case of O=C(NCCCCCNc1c2c(nc3ccccc13)CCCC2)c1c2ccccc2nc2ccccc12, the pIC50 (Acetylcholinesterase [1]) was 11.12 and the pIC50 (Cholinesterase) was 11.77.

COc1ccc2nc3cc(Cl)ccc3c(Nc3sc4c(c3C#N)CCC4)c2c1 was tested, and the K (DNA) was 1 ×10⁴ /M.
